Earlier results as cited in US20240401031A1, “Platform Using iPSC-Derived Cardiomyocytes Carrying Gene Variants as Models of Cardiac Disease and Drug-Response” (SRI INTERNATIONAL, priority 2021, published 2024).

conditions: source CredibleMeds

Compound	Risk (Torsade de Pointes)
Cc1[nH]c2ccccc2c1CCNCc1ccc(/C=C/C(=O)NO)cc1 [Panobinostat]	(PR)
COc1ccnc(C[S+]([O-])c2nc3ccc(OC(F)F)cc3[nH]2)c1OC (stereo not drawn) [Pantoprazole]	(CR)
COc1ccc(Cc2nccc3cc(OC)c(OC)cc23)cc1OC [Papaverine]	(KR)
Fc1ccc([C@@H]2CCNC[C@H]2COc2ccc3c(c2)OCO3)cc1 [Paroxetine]	(CR)
Cc1ccc(Nc2nccc(N(C)c3ccc4c(C)n(C)nc4c3)n2)cc1S(N)(=O)=O [Pazopanib]	(PR)
N=C(N)c1ccc(OCCCCCOc2ccc(C(=N)N)cc2)cc1 [Pentamidine]	(KR)
FC(F)(F)C(F)(F)C(F)(F)F [Perflutren]	(PR)
CC(C)(N)Cc1ccccc1 [Phentermine]	(SR)
CNC[C@H](O)c1cccc(O)c1 [Phenylephrine]	(SR)
CC(N)C(O)c1ccccc1 (stereo not drawn) [Phenylpropanolamine]	(SR)
Cc1cccc(C)c1NC(=O)CC12CCCN1CCC2 [Pilsicainide]	(PR)
CC(C)COc1ccc(CNC(=O)N(Cc2ccc(F)cc2)C2CCN(C)CC2)cc1 [Pimavanserin]	(PR)
O=c1[nH]c2ccccc2n1C1CCN(CCCC(c2ccc(F)cc2)c2ccc(F)cc2)CC1 [Pimozide]	(KR)
NC(=O)C1(N2CCCCC2)CCN(CCCC(=O)c2ccc(F)cc2)CC1 [Pipamperone]	(PR)
Clc1ccc(CCCOCCCN2CCCCC2)cc1 [Pitolisant]	(PR)
CCC/N=C1\S/C(=C\c2ccc(OC[C@H](O)CO)c(Cl)c2)C(=O)N1c1ccccc1C [Ponesimod]	(PR)
CC[C@@H]([C@H](C)O)n1ncn(-c2ccc(N3CCN(c4ccc(OC[C@@H]5CO[C@@](Cn6cncn6)(c6ccc(F)cc6F)C5)cc4)CC3)cc2)c1=O [Posaconazole]	(CR)
O=[N+]([O-])c1cn2c(n1)OC[C@@H](OCc1ccc(OC(F)(F)F)cc1)C2 [Pretomanid]	(PR)
COc1cc(NC(C)CCCN)c2ncccc2c1 (stereo not drawn) [Primaquine]	(PR)
CC(CN1c2ccccc2Sc2ccccc21)N(C)C (stereo not drawn) [Promethazine]	(PR)
CN(C)CCCN1c2ccccc2Sc2cccnc21 [Prothipendyl]	(PR)
OCCOCCN1CCN(C2=Nc3ccccc3Sc3ccccc32)CC1 [Quetiapine]	(CR)
C=C[C@H]1C[N@@]2CC[C@H]1C[C@@H]2[C@@H](O)c1ccnc2ccc(OC)cc12 [Quinidine]	(KR)
C=C[C@H]1C[N@@]2CC[C@H]1C[C@H]2[C@H](O)c1ccnc2ccc(OC)cc12 [Quinine]	(CR)
COc1ccccc1OCC(O)CN1CCN(CC(=O)Nc2c(C)cccc2C)CC1 (stereo not drawn) [Ranolazine]	(CR)
CONC(=O)Nc1ccc(-c2sc3c(c2CN(C)C)c(=O)n(-c2ccc(OC)nn2)c(=O)n3Cc2c(F)cccc2F)cc1 [Relugolix]	(PR)
COC(=O)CC[C@@H]1N=C(c2ccccn2)c2cc(Br)ccc2-n2c(C)cnc21 [Remimazolam]	(PR)

Compound	Risk (Torsade de Pointes)
CN(C)C(=O)c1cc2cnc(Nc3ccc(N4CCNCC4)cn3)nc2n1C1CCCC1 [Ribociclib]	(PR)
Cc1cc(/C=C/C#N)cc(C)c1Nc1ccnc(Nc2ccc(C#N)cc2)n1 [Rilpivirine]	(PR)
CC(NCCc1ccc(O)cc1)C(O)c1ccc(O)cc1 (stereo not drawn) [Ritodrine]	(SR)
CC[C@H]1OC(=O)[C@H](C)[C@@H](O[C@H]2C[C@@](C)(OC)[C@@H](O)[C@H](C)O2)[C@H](C)[C@@H](O[C@@H]2O[C@H](C)C[C@H](N(C)C)[C@H]2O)[C@](C)(O)C[C@@H](C)/C(=N\OCOCCOC)[C@H](C)[C@@H](O)[C@]1(C)O [Roxithromycin]	(KR)
CNCc1ccc(-c2[nH]c3cc(F)cc4c3c2CCNC4=O)cc1 [Rucaparib]	(PR)
OCc1cc(C(O)CNCCCCCCOCCCCc2ccccc2)ccc1O (stereo not drawn) [Salmeterol]	(SR)
COc1ccc(CN2C3CC2CN(c2ccc(-c4cc(OCC(C)(C)O)cn5ncc(C#N)c45)cn2)C3)cn1 [Selpercatinib]	(PR)
O=C1NCCN1CCN1CCC(c2cn(-c3ccc(F)cc3)c3ccc(Cl)cc23)CC1 [Sertindole]	(KR)
CN[C@H]1CC[C@@H](c2ccc(Cl)c(Cl)c2)c2ccccc21 [Sertraline]	(CR)
FCOC(C(F)(F)F)C(F)(F)F [Sevoflurane]	(KR)
CCc1cc(/C(C)=N/OCc2ccc(C3CCCCC3)c(C(F)(F)F)c2)ccc1CN1CC(C(=O)O)C1 [Siponimod]	(PR)
CNC(=O)c1cc(Oc2ccc(NC(=O)Nc3ccc(Cl)c(C(F)(F)F)c3)cc2)ccn1 [Sorafenib]	(PR)
C[C@@H]1CN(c2c(F)c(N)c3c(=O)c(C(=O)O)cn(C4CC4)c3c2F)C[C@H](C)N1 [Sparfloxacin]	(KR)
CCN1CCCC1CNC(=O)c1cc(S(N)(=O)=O)ccc1OC (stereo not drawn) [Sulpiride]	(KR)
CCN1CCCC1CNC(=O)c1cc(S(=O)(=O)CC)ccc1OC (stereo not drawn) [Sultopride]	(KR)
CCN(CC)CCNC(=O)c1c(C)[nH]c(/C=C2\C(=O)Nc3ccc(F)cc32)c1C [Sunitinib]	(PR)
C=CC[C@@H]1/C=C(\C)C[C@H](C)C[C@H](OC)[C@H]2O[C@@](O)(C(=O)C(=O)N3CCCC[C@H]3C(=O)O[C@H](/C(C)=C/[C@@H]3CC[C@@H](O)[C@H](OC)C3)[C@H](C)[C@@H](O)CC1=O)[C@H](C)C[C@@H]2OC [Tacrolimus]	(PR)
CCN(c1cc(-c2ccc(CN3CCOCC3)cc2)cc(C(=O)NCc2c(C)cc(C)[nH]c2=O)c1C)C1CCOCC1 [Tazemetostat]	(PR)
CCC[C@H](NC(=O)[C@@H]1[C@H]2CCC[C@H]2CN1C(=O)[C@@H](NC(=O)[C@@H](NC(=O)c1cnccn1)C1CCCCC1)C(C)(C)C)C(=O)C(=O)NC1CC1 [Telaprevir]	(CR)
CC[C@H]1OC(=O)[C@H](C)C(=O)[C@H](C)[C@@H](O[C@@H]2O[C@H](C)C[C@H](N(C)C)[C@H]2O)[C@](C)(OC)C[C@@H](C)C(=O)[C@H](C)[C@H]2N(CCCCn3cnc(-c4cccnc4)c3)C(=O)O[C@]12C [Telithromycin]	(PR)
CC(C)(C)NCC(O)c1cc(O)cc(O)c1 (stereo not drawn) [Terbutaline]	(SR)
CC(CC(c1ccccc1)c1ccccc1)NC(C)(C)C (stereo not drawn) [Terodiline]	(KR)
COc1cc2c(cc1OC)C1CC(=O)C(CC(C)C)CN1CC2 (stereo not drawn) [Tetrabenazine]	(PR)
CCN(CC)CCNC(=O)c1cc(S(C)(=O)=O)ccc1OC [Tiapride]	(PR)
CN(C)CCOc1ccc(/C(=C(/CCCl)c2ccccc2)c2ccccc2)cc1 [Toremifene]	(PR)
Cc1cccc(Nc2ccncc2S(=O)(=O)NC(=O)NC(C)C)c1 [Torsemide]	(CR)
COc1cccc(C2(O)CCCCC2CN(C)C)c1 (stereo not drawn) [Tramadol]	(PR)
